Measurements reported in US20250059162A1, “MULTI-PROTEIN DEGRADATION AGENT HAVING IMIDE SKELETON” (SUZHOU KINTOR PHARMACEUTICALS, INC., priority 2021, published 2025).

System: HL60 cells
Test: Anti-proliferation on HL60 cells (CellTiter-Glo, 3 days)
Assay type: cell-based
Settings: Homo sapiens, HL-60, 72 h, 3 days incubation, CTG luminescence, IC50 by XLfit, read-out: HL60 cells Proliferation inhibitory activity
Description: HL60 cells (Cell Bank of Chinese Academy of Sciences) in the logarithmic growth phase were counted and plated evenly in a 96-well transparent bottom white plate at 20000 cells per well and 100 μL per well.
A certain amount of the compound of the present invention was weighed and diluted with DMSO to a 10 mM stock solution. The culture medium RPMI-1640 (meilunbio, MA0215) corresponding to the cells were taken, and the compound was diluted to the concentration required by the test, shaken gently and mixed evenly. 50 μL of the gradient dilution of the diluted compound was added to each well of the plated cells, and 50 μL of 0.1% DMSO was added to the control group. The plate was shaken gently, mixed evenly and incubated in a cell culture incubator for 3 days.
• 3.1 The CellTiter-Glo™ (CTG) (purchased from Promega, Cat. No. G9242) reagent was taken in advance from the −20° C. refrigerator and equilibrated to room temperature in the dark. Cell Titer-Glo buffer and Cell Titer-Glo substrate were mixed at a ratio of 1:1 to prepare a CTG detection reagent. • 3.2 The 96-well plate was taken out and inspected under a microscope for growth. • 3.3 The bottom of the 96-well plate was tagged with white paper, and then the plate was wrapped with tin foil paper, shaken at 37° C. at 300 r for 10 min and mixed evenly. • 3.4. 50 μL of CTG detection reagent was added to each well, Luminescence signal was detected using a microplate reader Biotek Synergy Hi, and the inhibition rate was calculated. IC50 values of the compounds were calculated by XLfit 5.5.0 software to evaluate the proliferation inhibitory activity on HL60 cells.

| Structure (SMILES) | IC50 |
| --- | --- |
| O=C1CCC(N2Cc3cc(NC(=O)CC4CCN(c5ncc(-c6ccccc6)cn5)CC4)ccc3C2=O)C(=O)N1 (centres unmarked) [Compound A51] | < 0.2 nM |
| O=C1CCC(N2Cc3c(ccc(CNCC4CCN(c5ncc(-c6cccc(Cl)c6)cc5C(F)(F)F)CC4)c3F)C2=O)C(=O)N1 (centres unmarked) [Compound A139] | 17.7 nM |
| O=C1CCC(N2Cc3cc(C(=O)NCC4CCN(c5ccc(-c6cccc7cccnc67)nc5)CC4)ccc3C2=O)C(=O)N1 (centres unmarked) [Compound A44] | 5 nM |
| O=C1CCC(N2Cc3cc(CNCC4CCN(c5ncc(-c6ccccn6)cc5F)CC4)ccc3C2=O)C(=O)N1 (centres unmarked) [Compound A106] | 878 nM |
| COc1cc(CNCC2CCN(c3ncc(-c4cccc(Cl)c4)cc3C(F)(F)F)CC2)ccc1C(=O)NC1CCC(=O)NC1=O (centres unmarked) [Compound A161] | 11200 nM |
| O=C1CCC(N2Cc3cc(NC(=O)CC4CCN(C(=O)Cn5c6ccccc6c6cccnc65)CC4)ccc3C2=O)C(=O)N1 (centres unmarked) [Compound A11] | 39 nM |
| O=C1CC[C@H](N2Cc3cc(CNCC4(F)CCN(c5ncc(-c6cccc(Cl)c6)cc5C(F)(F)F)CC4)ccc3C2=O)C(=O)N1 [Compound A127] | 6.75 nM |
| O=C1CCC(N2Cc3cc(CNCC4CCN(c5ccc(-c6cccc(Cl)c6)cc5C(F)(F)F)CC4)ccc3C2=O)C(=O)N1 (centres unmarked) [Compound A104] | 20.5 nM |
| O=C1CCC(N2Cc3cc(NC(=O)CC4CCN(c5ccc(-c6nccc7ccccc67)cn5)CC4)ccc3C2=O)C(=O)N1 (centres unmarked) [Compound A46] | < 0.2 nM |
| CN(C)c1cc(-c2cccc(Cl)c2)cnc1N1CCC(CNCc2ccc3c(c2)CN(C2CCC(=O)NC2=O)C3=O)CC1 (centres unmarked) [Compound A79] | < 0.2 nM |
| O=C1CCC(NCc2ccc(CNCC3CCN(c4ncc(-c5cccc(Cl)c5)cc4C(F)(F)F)CC3)cc2)C(=O)N1 (centres unmarked) [Compound A165] | 9560 nM |
| O=C1CCC(n2nc3cc(CNCC4CCN(c5ncc(-c6cccc(F)c6)cc5F)CC4)ccn3c2=O)C(=O)N1 (centres unmarked) [Compound A147] | 12300 nM |
| O=C1C[C@H](N2Cc3cc(CNCC4CCN(c5ncc(-c6cccc(F)c6)cc5C(F)(F)F)CC4)ccc3C2=O)C(=O)N1 [Compound A172] | 9990 nM |
| Cc1cccc(-c2cnc(N3CCC(CNCc4ccc5c(c4)CN([C@H]4CCC(=O)NC4=O)C5=O)CC3)c(C(F)(F)F)c2)c1 [Compound A123] | < 3.04 nM |
| Cc1nc2ccc(CNCC3CCN(c4ncc(-c5cccc(Cl)c5)cc4C(F)(F)F)CC3)cc2c(=O)n1C1CCC(=O)NC1=O (centres unmarked) [Compound A151] | 687 nM |
| O=C1CCC(N2Cc3cc(C(=O)NCC4CCN(c5cc(-c6cccc7ccccc67)ccn5)CC4)ccc3C2=O)C(=O)N1 (centres unmarked) [Compound A16] | 1.5 nM |
| O=C1CCC(N2Cc3cc(NC(=O)CC4CCN(c5nccc(-c6cccc7ccccc67)n5)CC4)ccc3C2=O)C(=O)N1 (centres unmarked) [Compound A13] | 6.4 nM |
| O=C1CCC(N2C(=O)c3cc4c(cc3C2=O)CN(CC2CCN(c3ncc(-c5cccc(Cl)c5)cc3C(F)(F)F)CC2)C4)C(=O)N1 (centres unmarked) [Compound A138] | 1100 nM |
| O=C1CCC(n2cc(-c3ccc(CNCC4CCN(c5ncc(-c6cccc(Cl)c6)cc5C(F)(F)F)CC4)cc3)nn2)C(=O)N1 (centres unmarked) [Compound A168] | 109 nM |
| O=C1CCC(c2coc3cc(CNCC4CCN(c5ncc(-c6cccc(Cl)c6)cc5C(F)(F)F)CC4)ccc23)C(=O)N1 (centres unmarked) [Compound A149] | 1740 nM |
| O=C1CCC(N2Cc3cc(C(=O)NCC4CCN(c5ccc(-c6cccc7ccccc67)cn5)CC4)ccc3C2=O)C(=O)N1 (centres unmarked) [Compound A34] | < 0.2 nM |
| O=C1CCC(NC(=O)c2ccc(CNCC3CCN(c4ncc(-c5cccc(Cl)c5)cc4C(F)(F)F)CC3)nc2)C(=O)N1 (centres unmarked) [Compound A157] | 11700 nM |
| O=C(CN1CCC(CC(=O)Nc2ccc3c(c2)CN(C2CCC(=O)NC2=O)C3=O)CC1)NCCn1c2ccccc2c2cccnc21 (centres unmarked) [Compound A8] | 14 nM |
| Cn1nc(N2CCC(=O)NC2=O)c2cc(CNCC3CCN(c4ncc(-c5cccc(Cl)c5)cc4C(F)(F)F)CC3)ccc21 [Compound A176] | 5210 nM |
| O=C1CCC(N2Cc3cc(CCCN4CCN(c5ncc(-c6cccc(Cl)c6)cc5C(F)(F)F)CC4)ccc3C2=O)C(=O)N1 (centres unmarked) [Compound A135] | 25.7 nM |
| O=C1CCC(N2Cc3cc(CNCC4CCN(c5ncc(-c6cccc(Cl)c6)cc5C(F)(F)F)CC4)ncc3C2=O)C(=O)N1 (centres unmarked) [Compound A142] | 397 nM |

The next lines start with the values.

| IC50 | Structure (SMILES) |
| --- | --- |
| 0.2 nM | O=C1CCC(N2Cc3cc(C(=O)NCC4CCN(c5ccc(-c6cccc7cccnc67)cn5)CC4)ccc3C2=O)C(=O)N1 (centres unmarked) [Compound A42] |
| 268 nM | O=C1CCC(NC(=O)c2ccc(CNCC3CCN(c4ncc(-c5cccc(Cl)c5)cc4C(F)(F)F)CC3)cn2)C(=O)N1 (centres unmarked) [Compound A156] |
| 7320 nM | Cc1nc2cc(CNCC3CCN(c4ncc(-c5cccc(Cl)c5)cc4C(F)(F)F)CC3)ccc2c(=O)n1C1CCC(=O)NC1=O (centres unmarked) [Compound A152] |
| 94 nM | O=C(CN1CCC(CNC(=O)c2ccc3c(c2)CN(C2CCC(=O)NC2=O)C3=O)CC1)NCCn1c2ccccc2c2cccnc21 (centres unmarked) [Compound A7] |
| 12 nM | O=C(CC1CCN(c2ncc(-c3cccc4ccccc34)cn2)CC1)Nc1ccc2c(c1)CN(C1CCC(=O)N(COP(=O)(O)O)C1=O)C2=O (centres unmarked) [Compound A117] |
| 1.8 nM | O=C1CCC(N2Cc3cc(CNCC4CCN(c5ncc(-c6cccc(OC(F)(F)F)c6)cc5C(F)(F)F)CC4)ccc3C2=O)C(=O)N1 (centres unmarked) [Compound A96] |
| 11 nM | Cc1cc(Cl)cc(-c2cnc(N3CCC(CNCc4ccc5c(c4)CN(C4CCC(=O)NC4=O)C5=O)CC3)c(C(F)(F)F)c2)c1 (centres unmarked) [Compound A114] |
| < 0.2 nM | O=C1CCC(N2Cc3cc(NC(=O)CC4CCN(c5ncc(-c6cccc7cccc(F)c67)s5)CC4)ccc3C2=O)C(=O)N1 (centres unmarked) [Compound A26] |
| 1.2 nM | NC(=O)c1cc(-c2cccc(Cl)c2)cnc1N1CCC(CNCc2ccc3c(c2)CN(C2CCC(=O)NC2=O)C3=O)CC1 (centres unmarked) [Compound A99] |
| 160 nM | O=C1CCC(N2Cc3nc(CNCC4CCN(c5ncc(-c6cccc(Cl)c6)cc5C(F)(F)F)CC4)ccc3C2=O)C(=O)N1 (centres unmarked) [Compound A141] |
| 8220 nM | CN(C(=O)c1ccc(CNCC2CCN(c3ncc(-c4cccc(Cl)c4)cc3C(F)(F)F)CC2)cc1)C1CCC(=O)NC1=O (centres unmarked) [Compound A163] |
| 9580 nM | O=C1CCC(NC(=O)Cc2ccc(CNCC3CCN(c4ncc(-c5cccc(Cl)c5)cc4C(F)(F)F)CC3)cc2)C(=O)N1 (centres unmarked) [Compound A167] |
| 0.2 nM | O=C1CCC(N2Cc3cc(C(=O)NCC4CCN(c5ncc(-c6cccc7ccccc67)s5)CC4)ccc3C2=O)C(=O)N1 (centres unmarked) [Compound A23] |
| 8520 nM | O=C1CCC(c2cn3cc(CNCC4CCN(c5ncc(-c6cccc(Cl)c6)cc5C(F)(F)F)CC4)ccc3n2)C(=O)N1 (centres unmarked) [Compound A148] |
| 6700 nM | O=C1CCC(NC(=O)c2ccc(CNCC3CCN(c4ncc(-c5cccc(Cl)c5)cc4C(F)(F)F)CC3)c(F)c2)C(=O)N1 (centres unmarked) [Compound A159] |
| 0.3 nM | O=C1CCC(N2Cc3cc(NC(=O)CC4CCN(c5cnc(-c6cccc7ccccc67)s5)CC4)ccc3C2=O)C(=O)N1 (centres unmarked) [Compound A25] |
| 10 nM | O=C(CN1CCC(CC(=O)Nc2ccc3c(c2)CN(C2CCC(=O)NC2=O)C3=O)CC1)NCc1cccc2ccccc12 (centres unmarked) [Compound A5] |
| 1.4 nM | O=C1CCC(N2Cc3cc(C(=O)NCC4CCN(c5ncc(-c6cccc(Cl)c6)cn5)CC4)ccc3C2=O)C(=O)N1 (centres unmarked) [Compound A52] |
| 0.9 nM | O=C1CCC(N2Cc3cc(C(=O)NCC4CCN(c5cccc(-c6cccc7ccccc67)n5)CC4)ccc3C2=O)C(=O)N1 (centres unmarked) [Compound A14] |
| 9.2 nM | N#CC1(CNCc2ccc3c(c2)CN(C2CCC(=O)NC2=O)C3=O)CCN(c2ncc(-c3cccc(Cl)c3)cc2C(F)(F)F)CC1 (centres unmarked) [Compound A89] |
| 4.1 nM | O=C1CCC(N2Cc3cc(NC(=O)CC4CCN(c5ncc(Br)cn5)CC4)ccc3C2=O)C(=O)N1 (centres unmarked) [Compound A48] |
| 5.5 nM | O=C1CCC(N2Cc3cc(C(=O)NCC4CCN(c5cncc(-c6cccc7ccccc67)c5)CC4)ccc3C2=O)C(=O)N1 (centres unmarked) [Compound A18] |
| 3920 nM | O=C1CCC(N2C(=O)c3cccc4c(CNCC5CCN(c6ncc(-c7cccc(Cl)c7)cc6C(F)(F)F)CC5)ccc2c34)C(=O)N1 (centres unmarked) [Compound A174] |
| 6.7 nM | O=C1CC[C@@H](N2Cc3cc(CNCC4CCN(c5ncc(-c6cccc(F)c6)cc5F)CC4)ccc3C2=O)C(=O)N1 [Compound A126] |
| 2.9 nM | O=C1CCC(N2Cc3cc(C(=O)NCC4CCN(c5cccc(-c6cccc7ccccc67)c5)CC4)ccc3C2=O)C(=O)N1 (centres unmarked) [Compound A21] |
| < 0.2 nM | O=C1CCC(N2Cc3cc(NC(=O)CC4CCN(c5ncc(-c6ccc(Cl)cc6)cn5)CC4)ccc3C2=O)C(=O)N1 (centres unmarked) [Compound A55] |
| 11600 nM | O=C1CCC(n2c(C3CC3)nc3cc(CNCC4CCN(c5ncc(-c6cccc(Cl)c6)cc5C(F)(F)F)CC4)ccc3c2=O)C(=O)N1 (centres unmarked) [Compound A153] |
| 3 nM | O=C1CCC(N2Cc3cc(CNCC4CCN(c5ncc(-c6cccc(Cl)c6)cc5[N+](=O)[O-])CC4)ccc3C2=O)C(=O)N1 (centres unmarked) [Compound A78] |
| 0.4 nM | CN(C)c1cccc(-c2cnc(N3CCC(CNCc4ccc5c(c4)CN(C4CCC(=O)NC4=O)C5=O)CC3)c(C(F)(F)F)c2)c1 (centres unmarked) [Compound A97] |
| 825 nM | O=C1CCC(NC(=O)c2ccc(CNCC3CCN(c4ncc(-c5cccc(Cl)c5)cc4C(F)(F)F)CC3)cc2)C(=O)N1 (centres unmarked) [Compound A155] |
